Results published in US10376476B2, “Panicein compounds, compositions and uses thereof” (CENTRE NATIONAL DE LA RECHERCHE SCIENTIFIQUE, priority 2014, dated 2019).

molecular target: T1, human Patched (hPtc) expressed in S. cerevisiae (Homo sapiens, UniProt Q13635); experiment: Screening test 1: resistance of Patched-expressing yeast to doxorubicin (yeast growth, absorbance 600 nm); format: cell-based; conditions: 10 μg/mL fraction or purified compound, 10 μM doxorubicin
T1 construct: MAP; expressed in transfected cells; host or cells: Saccharomyces cerevisiae K699
T1 sequence (Q13635 1-1447): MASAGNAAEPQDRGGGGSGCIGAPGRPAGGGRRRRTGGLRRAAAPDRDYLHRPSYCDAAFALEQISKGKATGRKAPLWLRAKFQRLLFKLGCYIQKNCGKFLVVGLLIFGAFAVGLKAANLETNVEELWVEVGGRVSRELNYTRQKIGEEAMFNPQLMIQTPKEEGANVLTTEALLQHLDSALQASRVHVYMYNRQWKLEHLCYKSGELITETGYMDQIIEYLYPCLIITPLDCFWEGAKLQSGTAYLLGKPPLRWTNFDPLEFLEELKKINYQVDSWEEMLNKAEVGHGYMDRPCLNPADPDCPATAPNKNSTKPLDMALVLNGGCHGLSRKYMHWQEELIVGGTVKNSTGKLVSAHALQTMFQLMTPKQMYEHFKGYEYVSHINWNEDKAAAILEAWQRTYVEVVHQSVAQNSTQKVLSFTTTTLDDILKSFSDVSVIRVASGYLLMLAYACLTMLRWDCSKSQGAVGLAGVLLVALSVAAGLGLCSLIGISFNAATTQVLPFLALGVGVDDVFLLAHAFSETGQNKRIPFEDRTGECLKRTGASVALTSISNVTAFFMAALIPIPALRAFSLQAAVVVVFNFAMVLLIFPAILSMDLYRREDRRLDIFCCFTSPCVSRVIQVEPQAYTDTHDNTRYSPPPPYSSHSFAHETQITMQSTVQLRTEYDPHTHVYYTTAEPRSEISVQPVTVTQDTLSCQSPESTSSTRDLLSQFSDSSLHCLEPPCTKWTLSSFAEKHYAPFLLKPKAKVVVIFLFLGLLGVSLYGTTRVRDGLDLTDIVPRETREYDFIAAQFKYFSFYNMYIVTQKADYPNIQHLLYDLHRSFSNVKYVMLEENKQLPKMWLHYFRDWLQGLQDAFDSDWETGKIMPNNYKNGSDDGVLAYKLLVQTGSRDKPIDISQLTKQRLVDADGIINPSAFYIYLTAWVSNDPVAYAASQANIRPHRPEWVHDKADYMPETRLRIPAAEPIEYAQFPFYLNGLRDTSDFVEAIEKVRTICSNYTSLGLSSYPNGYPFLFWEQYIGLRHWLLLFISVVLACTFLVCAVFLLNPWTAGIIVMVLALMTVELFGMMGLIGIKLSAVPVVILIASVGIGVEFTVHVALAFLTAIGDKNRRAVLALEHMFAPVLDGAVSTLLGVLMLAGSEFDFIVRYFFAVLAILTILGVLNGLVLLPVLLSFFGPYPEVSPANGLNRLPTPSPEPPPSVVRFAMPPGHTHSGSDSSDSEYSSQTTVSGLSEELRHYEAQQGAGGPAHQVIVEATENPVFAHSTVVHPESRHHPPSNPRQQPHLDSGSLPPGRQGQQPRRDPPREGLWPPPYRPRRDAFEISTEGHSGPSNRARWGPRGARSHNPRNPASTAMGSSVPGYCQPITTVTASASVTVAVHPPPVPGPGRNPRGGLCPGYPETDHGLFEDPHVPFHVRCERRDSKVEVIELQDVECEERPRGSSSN
Description: A. Haliclona mucosa sponge. B. Haliclona mucosa methanolic fraction contains inhibitors of the resistance of Patched-expressing yeasts to doxorubicin. Yeast S. cerevisiae expressing hPtc were grown in 96 well plates in the presence of 10 μg/mL of the methanolic fraction of Haliclona mucosa crude extract dissolved in DMSO and in presence or not of 10 μM of doxorubicin (dxr). The growth of yeasts was measured by absorbance at 600 nm and the results shown are the mean of three independent experiments. C. Purification profile of Haliclona mucosa methanolic fraction. A preparative phenyl-hexyl HPLC column was used with a gradient starting at (47 H20: 53 ACN: 0.1 TFA) to (0 H20: 100 ACN: 0.1 TFA), flow rate: 10.0 mL/min, injection volume: 75 μl at 100 mg/mL. […] Purified compounds dissolved in DMSO were added (at 10 μg/mL) to the growth medium containing or not 10 μM dxr. The growth of yeasts was measured by absorbance at 600 nm.
S. cerevisiae expressing human Patched were grown in 10 mL of minimal medium (supplemented with 2% of glucose and amino acids cocktail without leucine) at 30° C. When the exponential phase was obtained (OD600=5-7), yeasts were precultured in the same medium to OD600=1-2. Yeasts were then diluted in rich medium containing 2% of glucose in 96-well plates. Methanolic or purified fractions (at 10 μg/mL final concentration) were added in all wells, and doxorubicin (10 μM final concentration) was added in half of the wells. Plates were incubated at 18° C. on a shaker at 1250 rpm (microtitre plate shaker SSL5 Stuart) and absorbance at 600 nm was recorded for about 72 hours.
Inventors cultured yeast S. cerevisiae expressing human Patched in their plasma membrane as previously described (Bidet et al., 2011, 2012) in 96 well plates. Methanolic fraction of Haliclona mucosa crude extracts was prepared, dissolved in DMSO at 10mg/mL and added at a final concentration of 10 μg/mL to the yeast culture medium supplemented or not with doxorubicin (dxr). As previously reported (Bidet et al., 2012), human Patched confers a resistance to growth inhibition by dxr, an […] used to treat a wide range of cancers (FIG. 2B).

| Compound | inhibition of the resistance (growth) of hPtc-expressing yeast in presence of dxr |
| --- | --- |
| C/C(=C\Cc1cc(O)ccc1O)CCc1c(C)c(O)c(O)c(C=O)c1C [P2, Panicein C] | strongly inhibit |
| C/C(=C\Cc1cc(O)ccc1O)CCc1c(C)cc(O)c(C=O)c1C [P3, Panicein B3] | strongly inhibit |
| Cc1cc(O)c(C=O)c(C)c1CCC1(C)C=Cc2cc(O)ccc2O1 (stereo not shown) [P4, Panicein B2] | lighter |
| COc1cc(C)c(CC/C(C)=C/Cc2cc(O)ccc2O)c(C)c1C [P5, Panicein A hydroquinone] | strongly inhibit |
